In assay [1] the target is T1, Tat protein (86 residues, isolate BH10) (Human immunodeficiency virus type 1 group M subtype B, UniProt P69697).
T1 construct: The recombinant Tat protein (86 residues, isolate BH10); made in house; host or cells: E. coli
Nature of the assay: Fluorescence polarization binding of compound to recombinant Tat protein. Set-up: species or system HIV-1. As to the method: (§1) The recombinant Tat protein (86 residues, isolate BH10) was produced in E. coli and purified on heparin-Sepharose then by HPLC as described (Mol Biol Cell 15 (2004), 2347). The compound (2) (MolPort) being fluorescent (λex 320 nm; λem 410 nm), the fluorescence polarization technique (Methods Appl. Fluoresc. (2016) 4(2)) and a PTI fluorimeter were used for the study of the binding of said compound (17 nM) to the Tat protein (1-60 μM) in citrate buffer (50 mM citrate; 150 mM NaCl; pH 7.2). A Kd of the order of 5 μM was measured. An identical value (˜4 μM) was obtained by surface plasmon resonance (SPR; Biacore) by passing the compound (2) in citrate buffer over immobilized Tat on a CMS chip.

The target in assay [2] is T1, Tat protein (86 residues, isolate BH10). Put plainly: Surface plasmon resonance (Biacore) on immobilized Tat. The assay is classed as binding, HIV-1. As for the experimental part: as §1
In assay [3] the target is T2, Tat-TAR transcription complex (Human immunodeficiency virus type 1 group M subtype B, UniProt P69697).
T2 construct: made in house; host or cells: E. coli
Put plainly: Retardation gel, affinity for Tat-TAR complex. The assay is classed as binding, HIV-1. As for the experimental part:
FIG. 1A Delay gel showing the migration of TAR RNA which is free or complexed with the Tat protein (Tat/TAR) in the presence of different concentrations (0 to 120 nM) of the compound (2) (C-2). Tat (400 nM) was incubated with 200 nM of TAR-FAM (WT or Abulge) for 1.5 h in the absence or presence of the compound (2), before separation on a 0.5×TBE 8% acrylamide gel, and acquisition of the fluorescence image. The proteins from the gel were then transferred to a nitrocellulose membrane for Tat visualization by Western blot.
FIG. 1B Quantification of the affinity of the compound (2) (C-2) for the Tat-TAR transcription complex. The Tat-TAR fluorescence band of duplicate gels was quantified and the results are shown in the graph (AU, arbitrary units). n=2. Means+/−SEM. *, p<0.05; ***, p<0.001 compared to the control without the compound (2) (One-way ANOVA).
The affinity of the compound (2) for the Tat-TAR complex was studied by retardation gel. […] The fluorescence of the gel is first visualized with a Chemidoc (Biorad) to detect fluorescein (that is to say TAR). […]

Assay [4] relates to Tat protein. Put plainly: Transactivation by Tat in HeLa cells (LTR-firefly/TK-renilla luciferase). The assay is classed as cell-based, HIV-1. As to conditions: for transactivation by extracellular Tat relative to control / transactivation by intracellular Tat relative to negative control: 5 μM compound, HeLa, 24 h; for transactivation by extracellular Tat relative to control: 200 nM Tat extra; for transactivation by intracellular Tat relative to negative control: Tat transfected (Tat intra). As for the experimental part: FIG. 2 Evaluation of the transactivating activity of the Tat protein of HeLa cells in the presence of 5 μM of the compound (2) (C-2) or of the compound (3) (C-3). HeLa cells were transfected with plasmids containing LTR-firefly and TK-renilla. In the Tat intra condition, Tat is co-transfected. 18 h after transfection the compounds (2) or (3) were added (5 μM), as well as 200 nM Tat for the Tat extra condition. The cells are lysed for the luciferase tests 24 hours later. The firefly/renilla ratio obtained under control conditions was set at 100. n=2. Means+/−SEM.**, p<0.01, ***, p<0.001 and ****, p<0.0001 compared to the drug-free control (One-way ANOVA).
For this test, the effect of the molecules on transactivation by the extracellular or intracellular Tat protein was monitored by the activity of two luciferases. On the one hand the Firefly luciferase, which is under the control of a viral promoter LTR dependent on the Tat protein, and on the other hand the Renilla luciferase (internal control), under the control of a Thymidine kinase cellular promoter independent of the Tat protein. Transactivation is expressed by the Firefly/Renilla ratio. All plasmids and the procedure have been described (Mol Biol Cell 15 (2004), 2347).
This series of experiments was carried out in the HeLa line. Cells were transfected with PEImax (Nature Comms 9 (2018) 2251). The drugs and Tat (if Tat extra) were added 18 h after transfection as indicated, and left for 24 h before lysing the cells. The luciferases are then assayed using Promega's Dual-Glo kit and a Tecan SPARK 10M plate reader. Extracellular Tat has the property of being able to enter into the cells.

Assay [5] concerns latent OM10.1 cells (promyeloblasts). Nature of the assay: LRA activity on OM10.1 latent cells (p24 ELISA). The assay is classed as cell-based. The following applies: 5 μM, p24 in supernatant. As to the method: FIG. 3B LRA activity of the compound (2) (C-2) and SAHA at 5 μM on latent OM10.1 cells (promyeloblasts). These latent cells, after induction, produce infectious viruses which are assayed in the supernatant by ELISA p24. n=2. Means+/−SEM.*, p<0.05 and ***, p<0.001 compared to the control medium alone (One-way ANOVA).
The results for the compound (2) were confirmed using another latent cell line, OM10.1 (promyeloblasts; source NARP; PLoS Pathog. 11 (2015) 1) which produces infectious HIV after induction. It was assayed by the viral antigen p24 (HIV-1 capsid protein) in the supernatant using an ELISA kit (Innotest).

Assay [6] concerns Tat protein. Put plainly: Transactivation test on primary T-CD4 cells. As to conditions: primary T-CD4 cells transfected with Tat, 24 h. In kind it is cell-based, HIV-1. As for the experimental part: FIG. 6 Transactivation test on primary T-CD4 cells. Primary T-CD4 cells were isolated from the blood of healthy donors, then they were transfected with plasmids containing Tat, LTR-firefly and TK-renilla. 18 h after transfection different concentrations of the compound (2) (C-2) were added, and the lysed cells for the luciferase tests 24 h later. n=3. Means+/−SEM. *, p<0.05 and ***, p<0.001 compared to the control without C-2 (One-way ANOVA).
To verify this point, a transactivation test was carried out with primary T-CD4 cells. […] The need to use doses 100 times higher on cancerous cells (that is to say 5-10 μM) is due to the cancerization process of these cells.

The subject of the next assay is latent cell line ACH-2. Nature of the assay: Specificity: HIV-1 production in ACH-2 latent cells with mutated TAR (p24 ELISA). In kind it is cell-based. As to conditions: compound (2), SAHA 5 μM, BST-1 10 nM. As to the method:
Means+/−SEM. ****, p<0.0001 compared to the solvent control (One-way ANOVA).
Once induced, these cells produce infectious virions. For these tests, the viral antigen p24 in the cell supernatant was assayed with the Innotest p24 ELISA kit.

The subject of assay [7] is latent T-CD4+ lymphocyte cells from HIV-1 patients. Put plainly: Ex vivo LRA activity on quiescent T-CD4+ cells of HIV-1 patients (p24). In kind it is cell-based, human. The following applies: for LRA efficacy compared with BST-1: 50-100 nM, 18-20 h, p24 in supernatant. As to the method:
FIG. 5 Ex vivo LRA activity on quiescent T-CD4^+ lymphocyte cells of HIV-1 patients. T-CD4 cells were isolated by negative selection before elimination of activated cells (CD25^+, CD69^+, HLA-DR^+) to obtain quiescent cells which were treated with drugs for 18-20 h to avoid reinfections. The LRA activity of the compounds (2) (C-2) and (3) (C-3) was determined by monitoring the viral protein p24 in the supernatant using a commercial ELISA test improved by the use of a luminescent substrate. The detection limit of p24 was 0.2 pg/ml. The response to BST-1 (10 nM) was set at 100% to allow comparison of LRA efficacy between patients (1 point=1 patient).
The ex vivo LRA activity of the compounds according to the invention was tested on latent T-CD4^+ lymphocyte cells from HIV-1 patients. All 8 patients had been under ART treatment for at least 6 months and their viral load was undetectable. Blood samples (20 ml) were taken (agreement with Montpellier University Hospital, Resp: Dr Edouard Tuaillon). After purification of white blood cells on Ficoll-Hypaque, negative selection of T-CD4^+ cells, elimination of activated T-CD4 cells (CD25^+, CD69^+, HLA-DR^+) (Milenyi kits), quiescent cells were treated with the compounds for 18-20 h to avoid reinfections. An assay p24 was then performed using a luminescent reagent (Luminata forte, Millipore) at the end of the Innotest. The sensitivity of the test thus modified is ˜0.2 pg p24/ml. The response to BST-1 varied between patients from 0.2 to 80 pg/ml.

The subject of a further assay is J-Lat 9.2 latent cells. Nature of the assay: LRA activity on J-Lat 9.2 latent cells (GFP, FACS). The assay is classed as cell-based. As to conditions: 5 μM, 24 h, GFP fluorescence by FACS. As for the experimental part:
FIG. 3A LRA activity of the compounds (1), (2) (3) (C-1, C-2, C-3) and SAHA (histone deacetylase inhibitor) at 5 μM on J-Lat 9.2 latent cells (derived from Jurkats). J-Lat 9.2 have a complete (single) HIV genome with a non-functional Env gene, and a GFP instead of Nef (Symons, J., and al., Retrovirology, 2017. 14(1): p. 2; Jordan, A., and al., The EMBO journal, 2003. 22(8): p. 1868-77). The activation of these viruses can be followed by the production of GFP and therefore by the detection of green fluorescence in the cells, followed by FACS. n=3. Means+/−SEM.**, p<0.01, compared to the drug-free control (One-way ANOVA).
To test the LRA effect of the molecules, JLat9.2 cells were first used. This latent cell line (source: NIH AIDS Reagents Program, NARP) derived from Jurkat cells contains an HIV genome with an inactivated Env gene and a GFP instead of Nef (Retrovirology, 14 (2017) 2). The lifting of latency is accompanied by the emission of fluorescence from GFP. The cells were treated with molecules at 5 μM for 24 h before analysis of the cells with a FACScalibur to determine the % of cells emitting fluorescence. It can be seen in FIG. 3A that the compound (2) at 5 μM has a significant LRA activity, of the order of 20-30% of that of SAHA.

Consider 3 compounds from US20230172913A1, “COMPOUNDS FOR USE IN THE REACTIVATION OF HIV IN LATENT HIV-INFECTED CELLS” (CENTRE NATIONAL DE LA RECHERCHE SCIENTIFIQUE, priority 2020, published 2023).

Where “and” joins values, the source holds several entries; their conditions need not be identical. Identical values can stand only once.

T2 sequence (P69697 whole entry, one chain of several): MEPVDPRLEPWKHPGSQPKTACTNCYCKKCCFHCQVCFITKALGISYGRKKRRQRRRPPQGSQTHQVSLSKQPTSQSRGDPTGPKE
T1 sequence (P69697 whole entry): as the sequence (P69697 whole entry, one chain of several) above

With `COc1cc(C(=O)Nc2cc(-c3nc4ccccc4[nH]3)ccc2C)ccc1OCc1ccc(Cl)cc1` [Compound (2), N-[5-(1H-1,3-benzodiazol-2-yl)-2-methylphenyl]-4-[(4-chlorophenyl)methoxy]-3-methoxybenzamide], the Kd in assay [1] is approximately 5 µM; in assay [2] it was approximately 4 µM; in assay [3] (retardation gel, 400 nM Tat, 200 nM TAR, 1.5 h at 25° C.), approximately 0.08 µM. Besides, in assay [3], the “concentration stabilizing the Tat-TAR transcription complex” value was 50 to 100 nM and 80 nM. For the same compound, the “transactivation by extracellular Tat relative to control” value in the assay on Tat protein [4] was determined as 60 times. Also, in the assay with Tat protein [4], the “transactivation by intracellular Tat relative to negative control” value was determined as 3.9 times. Further, the “effective concentrations on laboratory cell lines” value in the assay on Tat protein [4] (all the tests on laboratory cell lines (HeLa and That)) was approximately 5 µM. Besides, in assay [5], the “LRA activity relative to that of SAHA” value is approximately 40%. Further, the “concentration most effective in activating transactivation by Tat” value in the assay with Tat protein [6] is 30 nM. In the assay with latent cell line ACH-2, the “induction of HIV-1 production (p24)” value is “incapable of inducing the production of HIV-1”. Also, the “LRA efficacy compared with BST-1” value in [7] is “at least as effective as BST-1”. For the same compound, in [7] (latent primary cells), the “concentration sufficient for the LRA effect ex vivo” value was 50 to 100 nM and 50 nM.

Take `COc1ccc(-c2nn3ccnc3s2)cc1NC(=O)c1ccc(OCc2ccccc2)cc1` [(1), 4-(benzyloxy)-N-(5-{imidazo[2,1-b][1,3,4]thiadiazol-2-yl}-2-methoxyphenyl)benzamide]: the “LRA activity (in words)” value in the assay on J-Lat 9.2 latent cells is “significant activity”.

Take `O=C(Nc1ccc(-c2nc3ccccc3[nH]2)cc1)c1cccc(OCc2ccccc2)c1` [(3), N-[4-(1H-1,3-benzodiazol-2-yl)phenyl]-3-(benzyloxy)benzamide]: in the assay on Tat protein [4], the “transactivation by extracellular Tat relative to control” value was 108 times and the “transactivation by intracellular Tat relative to negative control” value was 9 times. Further, the “LRA activity (in words)” value in the assay with J-Lat 9.2 latent cells is given as “close to that of SAHA”. In assay [7], the “LRA efficacy compared with BST-1” value is recorded as “at least as effective as BST-1”.
